In patent publication US20250163057A1, “DCN-1 MODULATING COMPOUNDS AND METHODS OF USE THEREOF” (Cellarity, Inc., priority 2023, published 2025):
Where two headings read alike, the source gives them in different places.

What was measured:
[1] = tested on: fetal hemoglobin gene HBG1; assay: HBG1 Nanostring Assay in CD34+ HSPC erythroid differentiation culture; format: cell-based, human; conditions: for Nanostring Ymax obs (%): relative to a control compound (C1); for EC50: HBG1 induction, Day10 of erythroid differentiation
Experimental: A Nanostring Assay was performed to evaluate the ability of the compounds to induce expression of the fetal hemoglobin gene HBG1 in cells. The data are shown as EC50, with stronger inducers having a lower EC50 value and higher YMax.
Forty eight hours later (day −2), the cells were passaged at a density of 200,000 cells/ml (100 ul/well in 96well culture plate) in complete expantion media. The cells were plated at 200,000 cells/ml on day 0 and day 3, 400,000 cells/ml on day 5 in phase 1 erythroid differentiation containing StemSpan with 2.5 U/mL of EPO (R&D systems, 287-TC-500), 0.5 mg/mL of Holo-Transferrin (Sigma, T0665-500MG), 1× Glutamine (Gluta-Max) (Gibco, 35050-061), 5 μL/mL Lipid Mixture (Sigma, L0288-100ML), 50 ng/mL SCF (R&D Systems, 255-SV-050), 10 ng/mL IL-3 (R&D Systems, 203-IL010) and 10 ng/mL Insulin (Sigma, I9278-5ML) all 200 μl per well in 96 well culture plate. Cells were then passaged at 500,000 cells/ml and 200 μl per well on day 7 in phase 2 Erythroid differentiation (Phase 1 erythroid differentiation removing IL-3) until collection day (Day10). The culture conditions were used for both control DMSO as well as experimental treatments.
For all cell pasagings, cells were centrifuged at 300 g for 8 minutes at room temperature and cell number were normalized by MANTIS and Integra VIAFLO 384. All the compounds are diluted in DMSO and added to complete media by Formulatrix FAST and mixed starting from day −2. Cells were counted by Luna cell counter with AOPI Staining Solution (Nexcelom Bioscience, CS2-0106-25 mL) on day-2. Cells were counted by BD FACSCelesta Flow Cytometer with CountBright™ Plus Absolute Counting Beads (Thermal Fisher Scientific, C36995) and SYTOX AADvanced™ Ready Flow™ Reagent (Invitrogen, R37173) for other passages. Cells were cultured at 37° C. and 5% CO2. DMSO concentration was kept at 0.1% to minimize any effects to the cells by the vehicle. […] Compound plates were kept at room temperature to protect from light to avoid multiple freeze and thaw cycle.
On the collection day (Day10), 100K cells were collected and stored at −80° C. For direct hybridization for Nanostring, 100K cell pellet was lyzed in 25 μL of RLT (QIAGEN, 79216) with 1×β-Mercaptoethanol (Gibco, 21985-023) and shaked at 300-500 RPM for 5 minutes at room temperature. Cell lysate was stored in −80° C. after lysis.
All hybridizations were done in a total volume of 15 μL (3 μL of RNA lysate added to master mix of 12 μL probe A/B, capture probe/reporter probes, proteinase K and attenuation oligos suspended in hybridization buffer). Samples were hybridized at 67° C. for 22 hr. Following hybridization, the tripartide complexes were purified, immobilized by nCounter Prep Station and imaged by Digital Analyzer (nCounter MAX/FLEX Analysis System), to generate digital counts of barcodes corresponding to each target in the multiplexed reaction. Labeled barcodes obtained from unamplified extracts were counted at 555 images or field of view (FOV). The barcode counts for each sample were recorded in Reporter Code Count (RCC) files that are imported into nSolver analysis software (provided with CodeSet by NS) for quality control evaluation.
The quality control (QC) metric included limit of detection QC by checking for wells with less than 100 total counts for positive controls.
Hybridization signals were normalized against the ERCC positive controls and CodeSet Content (housekeeping gene). Briefly, this involved first calculating a sample-specific scaling factor by calculating arithmetic mean of geomeans of all ERCC positive controls with counts more than zero in all samples. Then this arithmetic mean was divided by the geometric mean of each lane to generate a lane-specific normalization factor. All negative controls and target-specific signal values were then normalized by multiplying counts values with their sample-specific scaling factor. The acceptable range for scaling factors is 0.3-3.0. […]

[2] = tested on: Cullin-3 (CUL3) neddylation; assay: AlphaLISA assay for Cullin-3 (CUL3) neddylation in TF 1 cells; format: cell-based; conditions: 3 hours treatment
Procedure, shortened: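 Neddylated CUL3 was quantified by AlphaLISA in lysates of TF 1 cells exposed for 3 h to test compound in IMDM without supplements. Percent inhibition set between vehicle and 1 μM DI-1548 positive control; IC50 derived by Hill-equation fitting of dose-response curves.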

[3] = target: DCN1 (DCUND1) protein PONY domain (Homo sapiens (Human), UniProt Q96GG9); assay: TR-FRET assay, DCN1 binding with FAM-labeled probe
Chain of DCN1 (DCUND1) protein PONY domain (Q96GG9 60-248): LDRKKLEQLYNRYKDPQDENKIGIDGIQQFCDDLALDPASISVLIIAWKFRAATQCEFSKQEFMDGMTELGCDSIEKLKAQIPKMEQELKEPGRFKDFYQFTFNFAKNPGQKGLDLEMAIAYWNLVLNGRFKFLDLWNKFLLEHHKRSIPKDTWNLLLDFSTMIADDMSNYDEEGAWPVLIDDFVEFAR
Procedure, shortened: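 Tb-DCN1 PONY domain (E. coli, biotin/streptavidin-Tb); FAM-labelled non-covalent inhibitor probe; TritonX buffer, 200 mM NaCl; 5 nM DCN1 + 20 nM probe or 0.31 nM DCN1 + 900 nM total probe; 0.1% DMSO; TR-FRET read 1, 5, 24 hrs.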

[4] = 24 hr after treatment with compound, read-out: TR FRET IC50 24 hr
[5] = read-out: TR FRET IC50 1 hr, 1 hr after treatment with compound
[6] = TR FRET IC50 1 hr (nM), 1 hr after treatment with compound

| SMILES | Nanostring Ymax obs (%) [1] | IC50 ([2]; Homo sapiens, TF-1, 3 h) | IC50 [3, 4] | IC50 [3, 5] | EC50 ([1]; Homo sapiens, 240 h) | IC50 [3, 6] | EC50 [1] | IC50 [2] |
| --- | --- | --- | --- | --- | --- | --- | --- | --- |
| C=C(CN1CCC1)C(=O)NCc1nn(-c2ccccc2)c2c1[C@H](c1ccc(F)cc1)[C@H](NC(=O)c1cccc(C(F)(F)F)c1)C(=O)N2CC [Compound I-2] | ++ (Nanostring Ymax greater than 50.0 and less than or equal to 100.0) | ≤ 100 nM | ≤ 200 nM | ≤ 200 nM | – | – | – | – |
| CCN1C(=O)[C@@H](NC(=O)c2cccc(C(F)(F)F)c2)[C@@H](c2ccc(F)cc2)c2c(CN(C#N)CCCN(C)C)nn(-c3ccccc3)c21 [Compound I-247, ˜{N}-[(4˜{S},5˜{S})-3-[[cyano-[3-(dimethylamino)propyl]amino]methyl]-7-ethyl-4-(4-fluorophenyl)-6-oxo-1-phenyl-4,5-dihydropyrazolo[3,4-b]pyridine-5-yl]-3-(trifluoromethyl)benzamide] | ++ (Nanostring Ymax greater than 50.0 and less than or equal to 100.0) | ≤ 100 nM | ≤ 200 nM | ≤ 200 nM | > 1000 nM | – | – | – |
| CCN1C(=O)[C@@H](NC(=O)c2cccc(C(F)(F)F)c2)[C@@H](c2ccc(F)cc2)c2c(CN(C#N)CCCCN(C)C)nn(-c3ccccc3)c21 [Compound I-248, ˜{N}-[(4˜{S},5˜{S})-3-[[cyano-[4-(dimethylamino)butyl]amino]methyl]-7-ethyl-4-(4-fluorophenyl)-6-oxo-1-phenyl-4,5-dihydropyrazolo[3,4-b]pyridine-5-yl]-3-(trifluoromethyl)benzamide] | ++ (Nanostring Ymax greater than 50.0 and less than or equal to 100.0) | ≤ 100 nM | ≤ 200 nM | – | – | 200 to 1000 nM | – | – |
| CCN1C(=O)[C@@H](NC(=O)c2cccc(C(F)(F)F)c2)[C@@H](c2ccc(F)cc2)c2c(C(=O)N[C@@H](C)C#N)nn(-c3ccccc3)c21 [Compound I-254, (4S,5S)—N—((S)-1-cyanoethyl)-7-ethyl-4-(4-fluorophenyl)-6-oxo-1-phenyl-5-(3-(trifluoromethyl)benzamido)-4,5,6,7-tetrahydro-1H-pyrazolo[3,4-b]pyridine-3-carboxamide] | ++ (Nanostring Ymax greater than 50.0 and less than or equal to 100.0) | ≤ 100 nM | ≤ 200 nM | – | > 1000 nM | 200 to 1000 nM | – | – |
| CCN1C(=O)[C@@H](NC(=O)c2cccc(C(F)(F)F)c2)[C@@H](c2ccc(F)cc2)c2c([C@@H](CCCO)NC#N)nn(-c3ccccc3)c21 [Compound I-399] | ++ (Nanostring Ymax greater than 50.0 and less than or equal to 100.0) | ≤ 100 nM | ≤ 200 nM | ≤ 200 nM | 100 to 1000 nM | – | – | – |
| C=C(CN1CC2(CCO2)C1)C(=O)NCc1nn(-c2ccccc2)c2c1[C@H](c1ccc(F)cc1)[C@H](NC(=O)c1cccc(C(F)(F)F)c1)C(=O)N2CC [Compound I-407] | + (Nanostring Ymax greater than or equal to 0.0 and less than or equal to 50.0) | ≤ 100 nM | ≤ 200 nM | ≤ 200 nM | – | – | – | – |
| CCN1C(=O)[C@@H](NC(=O)c2cccc(C(F)(F)F)c2)[C@@H](c2ccc(F)cc2)c2c([C@H](NC#N)C(F)F)nn(-c3ccccc3)c21 [Compound I-411] | ++ (Nanostring Ymax greater than 50.0 and less than or equal to 100.0) | ≤ 100 nM | ≤ 200 nM | ≤ 200 nM | 100 to 1000 nM | – | – | – |
| C=C(CN1CC(O)C1)C(=O)NCc1nn(-c2ccccc2)c2c1[C@H](c1ccc(F)cc1)[C@H](NC(=O)c1cccc(C(F)(F)F)c1)C(=O)N2CC [Compound I-459] | ++ (Nanostring Ymax greater than 50.0 and less than or equal to 100.0) | ≤ 100 nM | ≤ 200 nM | ≤ 200 nM | ≤ 100 nM | – | – | – |
| C=C(CN(C)CC1COC1)C(=O)NCc1nn(-c2ccccc2)c2c1[C@H](c1ccc(F)cc1)[C@H](NC(=O)c1cccc(C(F)(F)F)c1)C(=O)N2CC [Compound I-574] | ++ (Nanostring Ymax greater than 50.0 and less than or equal to 100.0) | ≤ 100 nM | ≤ 200 nM | ≤ 200 nM | ≤ 100 nM | – | – | – |
| C=C(CN1CCCC1)C(=O)NCc1nn(-c2ccccc2)c2c1[C@H](c1ccc(F)cc1)[C@H](NC(=O)c1cccc(C(F)(F)F)c1)C(=O)N2CC [Compound I-612] | ++ (Nanostring Ymax greater than 50.0 and less than or equal to 100.0) | ≤ 100 nM | ≤ 200 nM | ≤ 200 nM | – | – | – | – |
| CCN1C(=O)[C@H](NC(=O)c2cccc(C(F)(F)F)c2)[C@@H](c2ccc(F)cc2)c2c([C@@H](C)NC#N)nn(-c3ccccc3)c21 [Compound I-637] | + (Nanostring Ymax greater than or equal to 0.0 and less than or equal to 50.0) | > 1000 nM | 200 to 1000 nM | – | – | 1000 to 3000 nM | – | – |
| C=C(CN1CC(C)(O)C1)C(=O)NCc1nn(-c2ccccc2)c2c1[C@H](c1ccc(F)cc1)[C@H](NC(=O)c1cccc(C(F)(F)F)c1)C(=O)N2CC [Compound I-643] | ++ (Nanostring Ymax greater than 50.0 and less than or equal to 100.0) | ≤ 100 nM | ≤ 200 nM | ≤ 200 nM | ≤ 100 nM | – | – | – |
| C=C(CN1CCC12COC2)C(=O)NCc1nn(-c2ccccc2)c2c1[C@H](c1ccc(F)cc1)[C@H](NC(=O)c1cccc(C(F)(F)F)c1)C(=O)N2CC [Compound I-644] | ++ (Nanostring Ymax greater than 50.0 and less than or equal to 100.0) | ≤ 100 nM | ≤ 200 nM | ≤ 200 nM | > 1000 nM | – | – | – |
| C=C(CN1CC2(CCOC2)C1)C(=O)NCc1nn(-c2ccccc2)c2c1[C@H](c1ccc(F)cc1)[C@H](NC(=O)c1cccc(C(F)(F)F)c1)C(=O)N2CC [Compound I-677] | +++ (Nanostring Ymax greater than 100.0) | ≤ 100 nM | ≤ 200 nM | ≤ 200 nM | – | – | – | – |
| COC(=O)/C=C/CN(C)Cc1nn(-c2ccccc2)c2c1[C@H](c1ccc(F)cc1)[C@H](NC(=O)c1cccc(C(F)(F)F)c1)C(=O)N2CC(C)C [I-266] | + (Nanostring Ymax greater than or equal to 0.0 and less than or equal to 50.0) | – | 200 to 1000 nM | 200 to 1000 nM | – | – | > 1000 nM | 100 to 1000 nM |
